What all share (assay type): in vivo
Assay [1] has as its system Lolium perenne (LOLPE). As to the kind of experiment: Example A post-emergence herbicidal activity, glasshouse pot test. The note with it: 360 h, rate 125 g/ha, evaluated 15 days after spraying, read-out: Post-emergence activity LOLPE (100=total damage to plant; 0=no damage to plant). As to the method: (§1) Seeds of a variety of test species were sown in standard soil in pots. After cultivation for one day (pre-emergence) or after 10 days cultivation (post-emergence) under controlled conditions in a glasshouse, the plants were sprayed with an aqueous spray solution derived from the formulation of the technical active ingredient in 0.6 ml acetone and 45 ml formulation solution containing 10.6% Emulsogen EL (Registry number 61791-12-6), 42.2% N-methylpyrrolidone, 42.2% dipropylene glycol monomethyl ether (Registry number 34590-94-8) and 0.2% X-77 (Registry number 11097-66-8). The test plants were then grown in a greenhouse under optimum conditions until, 15 days later for post-emergence and 20 days for pre-emergence, the test was evaluated (100=total damage to plant; 0=no damage to plant).
(§2) Alopecurus myosuroides (ALOMY), Avena fatua (AVEFA), Lolium perenne (LOLPE), Setaria faberi (SETFA), Digitaria sanguinalis (DIGSA), Echinochloa crus-galli (ECHCG)

Assay [2] deals with Setaria faberi (SETFA). The assay is described as above. As to conditions: 360 h, rate 125 g/ha, evaluated 15 days after spraying, read-out: Post-emergence activity SETFA (100=total damage to plant; 0=no damage to plant). On the procedure: as §1, §2
In assay [3] the test system is Digitaria sanguinalis (DIGSA). The description is as above. The note with it: 360 h, rate 125 g/ha, evaluated 15 days after spraying, read-out: Post-emergence activity DIGSA (100=total damage to plant; 0=no damage to plant). On the procedure:
as §1, §2

In assay [4] the test system is Alopecurus myosuroides (ALOMY). The assay is described as above. As to conditions: 360 h, rate 125 g/ha, evaluated 15 days after spraying, read-out: Post-emergence activity ALOMY (100=total damage to plant; 0=no damage to plant). As to the method: as §1, §2
For assay [5], the system named is Echinochloa crus-galli (ECHCG). The assay is described as above. As to conditions: 360 h, rate 125 g/ha, evaluated 15 days after spraying, read-out: Post-emergence activity ECHCG (100=total damage to plant; 0=no damage to plant). On the procedure:
as §1, §2

Assay [6] concerns Avena fatua (AVEFA). Described as above. As to conditions: 360 h, rate 125 g/ha, evaluated 15 days after spraying, read-out: Post-emergence activity AVEFA (100=total damage to plant; 0=no damage to plant). On the procedure: as §1, §2
Assay [7] has as its system Lolium perenne (LOLPE). Description: Example A pre-emergence herbicidal activity, glasshouse pot test. As to conditions: 480 h, evaluated 20 days after spraying, read-out: Pre-emergence activity LOLPE (100=total damage to plant; 0=no damage to plant); for pest or weed control at 250 g/ha: rate 250 g/ha; for pest or weed control at 500 g/ha: rate 500 g/ha. On the procedure:
as §1, §2

Assay [8] has as its system Setaria faberi (SETFA). The description is as above. As to conditions: 480 h, evaluated 20 days after spraying, read-out: Pre-emergence activity SETFA (100=total damage to plant; 0=no damage to plant); for pest or weed control at 250 g/ha: rate 250 g/ha; for pest or weed control at 500 g/ha: rate 500 g/ha. As to the method:
as §1, §2

The subject of assay [9] is Digitaria sanguinalis (DIGSA). Described as above. As to conditions: 480 h, evaluated 20 days after spraying, read-out: Pre-emergence activity DIGSA (100=total damage to plant; 0=no damage to plant); for pest or weed control at 250 g/ha: rate 250 g/ha; for pest or weed control at 500 g/ha: rate 500 g/ha. As to the method:
as §1, §2

Assay [10] relates to Alopecurus myosuroides (ALOMY). The description is as above. As to conditions: 480 h, evaluated 20 days after spraying, read-out: Pre-emergence activity ALOMY (100=total damage to plant; 0=no damage to plant); for pest or weed control at 250 g/ha: rate 250 g/ha; for pest or weed control at 500 g/ha: rate 500 g/ha. On the procedure: as §1, §2
Assay [11] concerns Echinochloa crus-galli (ECHCG). The description is as above. As to conditions: 480 h, evaluated 20 days after spraying, read-out: Pre-emergence activity ECHCG (100=total damage to plant; 0=no damage to plant); for pest or weed control at 250 g/ha: rate 250 g/ha; for pest or weed control at 500 g/ha: rate 500 g/ha. On the procedure: as §1, §2
Assay [12] relates to Avena fatua (AVEFA). Described as above. The note with it: 480 h, evaluated 20 days after spraying, read-out: Pre-emergence activity AVEFA (100=total damage to plant; 0=no damage to plant); for pest or weed control at 250 g/ha: rate 250 g/ha; for pest or weed control at 500 g/ha: rate 500 g/ha. On the procedure: as §1, §2

Regarding `CCc1ccc(-c2ccc(Cl)cc2Cl)cc1C1=C(O)C(C)(C)OC(C)(C)C1=O` [Compound A-45], the pest or weed control at 125 g/ha was 70% with Lolium perenne (LOLPE) [1]; 80% in the assay with Setaria faberi (SETFA) [2]; 100% in [3]; 20% in assay [4]; 100% in assay [5]; 70% in the assay with Avena fatua (AVEFA) [6]. Also, the pest or weed control at 250 g/ha with Lolium perenne (LOLPE) [7] turned out to be 80%; in the assay with Setaria faberi (SETFA) [8], 90%; in [9], 100%; in [10] it was 50%; in assay [11], 70%; in the assay on Avena fatua (AVEFA) [12], 50%.
As for `Cc1cc(-c2ccc(C)c(C3=C(O)C(C)(C)OC(C)(C)C3=O)c2)ccc1Cl` [Compound A-53], the pest or weed control at 125 g/ha with Lolium perenne (LOLPE) [1] amounted to 10%; in the assay with Setaria faberi (SETFA) [2], 0%; in assay [3] it was 50%; in [4], 30%; in [5], 90%; with Avena fatua (AVEFA) [6], 10%. Moreover, the pest or weed control at 250 g/ha in the assay with Lolium perenne (LOLPE) [7] is 0%; in the assay on Setaria faberi (SETFA) [8], 10%; in [9], 60%; in assay [10] it was 10%; in assay [11] it was 10%; in the assay with Avena fatua (AVEFA) [12], 0%.
In the case of `CCc1ccc(-c2ccc(Cl)c(F)c2)cc1C1=C(O)C(C)(C)OC(C)(C)C1=O` [Compound A-43], the pest or weed control at 125 g/ha is 80% in the assay with Lolium perenne (LOLPE) [1]; 100% in the assay with Setaria faberi (SETFA) [2]; 100% in assay [3]; 80% in [4]; 100% in [5]; 90% in the assay with Avena fatua (AVEFA) [6]. Also, the pest or weed control at 250 g/ha is 80% with Lolium perenne (LOLPE) [7]; 100% in the assay with Setaria faberi (SETFA) [8]; 100% in [9]; 80% in [10]; 100% in assay [11]; 90% in the assay with Avena fatua (AVEFA) [12].
Consider `CCCCC(=O)OC1=C(c2cc(-c3ccc(Cl)cc3)ccc2CC)C(=O)C(C)(C)OC1(C)C` [Compound D-2], for which the pest or weed control at 125 g/ha in the assay on Lolium perenne (LOLPE) [1] was 20%; in the assay with Setaria faberi (SETFA) [2], 90%; in assay [3], 90%; in assay [4], 20%; in assay [5], 90%; in the assay with Avena fatua (AVEFA) [6], 10%. Further, the pest or weed control at 500 g/ha in the assay on Lolium perenne (LOLPE) [7] is 80%; in the assay on Setaria faberi (SETFA) [8], 100%; in assay [9], 100%; in assay [10], 30%; in [11] it was 80%; with Avena fatua (AVEFA) [12], 60%.
As to `Cc1ccc(-c2ccc(Cl)c(C(F)(F)F)c2)cc1C1=C(O)C(C)(C)OC(C)(C)C1=O` [Compound A-52], the pest or weed control at 125 g/ha in the assay on Lolium perenne (LOLPE) [1] came to 30%; in the assay on Setaria faberi (SETFA) [2] it was 60%; in assay [3], 70%; in assay [4], 90%; in [5], 90%; in the assay on Avena fatua (AVEFA) [6], 70%. Further, the pest or weed control at 250 g/ha in the assay with Lolium perenne (LOLPE) [7] worked out at 10%; in the assay with Setaria faberi (SETFA) [8], 80%; in assay [9] it was 100%; in assay [10], 0%; in assay [11], 70%; in the assay with Avena fatua (AVEFA) [12], 0%.
As for `Cc1ccc(-c2ccc(Cl)cc2C)cc1C1=C(O)C(C)(C)OC(C)(C)C1=O` [Compound A-51], the pest or weed control at 125 g/ha with Lolium perenne (LOLPE) [1] was 0%; in the assay on Setaria faberi (SETFA) [2], 40%; in [3], 60%; in [4] it was 10%; in assay [5] it was 80%; in the assay with Avena fatua (AVEFA) [6] it was 20%. Also, the pest or weed control at 250 g/ha in the assay with Lolium perenne (LOLPE) [7] stood at 40%; in the assay with Setaria faberi (SETFA) [8], 10%; in assay [9] it was 50%; in assay [10], 0%; in assay [11] it was 50%; in the assay with Avena fatua (AVEFA) [12] it was 0%.
With `Cc1ccc(-c2ccc(Cl)cc2Cl)cc1C1=C(O)C(C)(C)OC(C)(C)C1=O` [Compound A-49], the pest or weed control at 125 g/ha with Lolium perenne (LOLPE) [1] is 80%; in the assay on Setaria faberi (SETFA) [2], 50%; in assay [3], 70%; in assay [4], 50%; in [5], 80%; in the assay with Avena fatua (AVEFA) [6], 70%. Moreover, the pest or weed control at 250 g/ha in the assay on Lolium perenne (LOLPE) [7] stood at 20%; in the assay with Setaria faberi (SETFA) [8] it was 50%; in [9], 50%; in [10], 0%; in [11], 100%; in the assay with Avena fatua (AVEFA) [12], 20%.
In the case of `CCc1ccc(-c2ccc(Cl)cc2)cc1C1=C(O)COCC1=O` [Compound A-2], the pest or weed control at 125 g/ha with Lolium perenne (LOLPE) [1] worked out at 0%; with Setaria faberi (SETFA) [2] it was 80%; in assay [3], 50%; in assay [4], 20%; in [5], 80%; in the assay on Avena fatua (AVEFA) [6], 20%. Also, the pest or weed control at 500 g/ha in the assay with Lolium perenne (LOLPE) [7] is 60%; in the assay with Setaria faberi (SETFA) [8], 70%; in [9], 10%; in assay [10], 50%; in assay [11] it was 100%; in the assay on Avena fatua (AVEFA) [12], 50%.
With `CCc1ccc(-c2ccc(Cl)cc2)cc1C1=C(O)C(C)(CC)OC(C)(CC)C1=O` (stereo not drawn) [Compound A-35], the pest or weed control at 125 g/ha in the assay with Lolium perenne (LOLPE) [1] stood at 70%; in the assay on Setaria faberi (SETFA) [2], 80%; in [3] it was 80%; in assay [4], 80%; in assay [5] it was 100%; in the assay on Avena fatua (AVEFA) [6], 50%. Further, the pest or weed control at 250 g/ha with Lolium perenne (LOLPE) [7] was 80%; in the assay with Setaria faberi (SETFA) [8] it was 100%; in assay [9], 80%; in assay [10] it was 70%; in [11], 100%; in the assay with Avena fatua (AVEFA) [12], 70%.

These data come from US8680012B2, “4-phenyl-pyrane-3,5-diones,4-phenyl-thiopyrane-3,6-diones and cyclohexanetriones as novel herbicides” (Syngenta Crop Protection LLC, priority 2006, dated 2014).
